Usually inhibition stands for the change of the read-out against control, counted positive when it falls. As usually defined, the IC50 is the midpoint of a concentration-inhibition curve.

Test [1] addresses T1, Phosphatidylinositol 4,5-bisphosphate 3-kinase catalytic subunit delta isoform (Homo sapiens) (UniProt O00329).
T1 sequence (whole entry): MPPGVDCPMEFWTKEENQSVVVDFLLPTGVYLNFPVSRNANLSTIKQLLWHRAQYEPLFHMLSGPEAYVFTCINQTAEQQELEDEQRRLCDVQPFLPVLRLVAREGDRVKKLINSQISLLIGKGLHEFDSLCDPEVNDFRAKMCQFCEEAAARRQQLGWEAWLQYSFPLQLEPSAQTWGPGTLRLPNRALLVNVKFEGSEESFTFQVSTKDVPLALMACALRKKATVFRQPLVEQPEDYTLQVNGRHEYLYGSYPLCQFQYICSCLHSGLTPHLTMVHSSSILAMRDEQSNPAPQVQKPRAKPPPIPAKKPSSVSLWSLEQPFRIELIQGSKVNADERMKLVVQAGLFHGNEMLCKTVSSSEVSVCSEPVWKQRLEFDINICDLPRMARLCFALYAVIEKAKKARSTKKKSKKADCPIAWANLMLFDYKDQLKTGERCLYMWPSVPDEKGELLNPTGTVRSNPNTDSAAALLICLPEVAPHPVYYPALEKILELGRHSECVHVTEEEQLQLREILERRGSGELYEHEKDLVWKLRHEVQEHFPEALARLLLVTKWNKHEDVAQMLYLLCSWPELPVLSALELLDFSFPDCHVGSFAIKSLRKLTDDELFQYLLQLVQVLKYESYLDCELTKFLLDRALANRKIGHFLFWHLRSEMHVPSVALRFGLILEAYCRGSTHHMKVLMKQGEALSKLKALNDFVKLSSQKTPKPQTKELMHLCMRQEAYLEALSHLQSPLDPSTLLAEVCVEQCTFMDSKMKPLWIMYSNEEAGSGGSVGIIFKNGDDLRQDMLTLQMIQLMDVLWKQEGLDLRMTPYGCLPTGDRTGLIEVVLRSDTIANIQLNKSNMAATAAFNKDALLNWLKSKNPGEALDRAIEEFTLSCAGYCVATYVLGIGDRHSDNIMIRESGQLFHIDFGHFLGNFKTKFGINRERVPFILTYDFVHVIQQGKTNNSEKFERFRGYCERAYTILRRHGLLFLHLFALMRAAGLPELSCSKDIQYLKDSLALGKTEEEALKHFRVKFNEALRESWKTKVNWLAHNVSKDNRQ
The test can be described thus: Inhibition of wild type PI3K-delta (unknown origin) assessed as decrease in ATP consumption at 10 uM using phosphotidylinositol bisphosphate and ATP measured after 60 mins by Kinase-Glo reagent based luminescence assay. Background: Kinase-Glo measures the ATP left after a reaction by luminescence.

Test [2] concerns the target Phosphatidylinositol 4,5-bisphosphate 3-kinase catalytic subunit gamma isoform (Homo sapiens) (UniProt P48736). The test can be described thus: Inhibition of wild type PI3K-gamma (unknown origin) assessed as decrease in ATP consumption at 10 uM using phosphotidylinositol bisphosphate and ATP measured after 60 mins by Kinase-Glo reagent based luminescence assay.
The target of test [3] is cGMP-inhibited 3',5'-cyclic phosphodiesterase 3A (Homo sapiens, UniProt Q14432). The test can be described thus: Inhibition of human PDE3A at 10 uM by HTRF assay.
The target in test [4] is Phosphatidylinositol 4,5-bisphosphate 3-kinase catalytic subunit beta isoform (Homo sapiens) (UniProt P42338). Nature of the test: Inhibition of wild type PI3K-beta (unknown origin) assessed as decrease in ATP consumption at 10 uM using phosphotidylinositol bisphosphate and ATP measured after 60 mins by Kinase-Glo reagent based luminescence assay.
The target in test [5] is Phosphatidylinositol 4,5-bisphosphate 3-kinase catalytic subunit alpha isoform (Homo sapiens) (UniProt P42336). The test can be described thus: Inhibition of wild type PI3K-alpha (unknown origin) assessed as decrease in ATP consumption at 10 uM using phosphotidylinositol bisphosphate and ATP measured after 60 mins by Kinase-Glo reagent based luminescence assay.
Test [6] has as its target DNA-dependent protein kinase catalytic subunit (Homo sapiens, UniProt P78527). The test can be described thus: Inhibition of human DNA-PK catalytic subunit at 10 uM using DNA and [EPPLSQEAFADLWKK] peptide substrate by HTRF assay. For orientation: In TR-FRET formats the signal depends on donor and acceptor labels being close together.
Test [7] addresses T2, Phosphatidylinositol 4,5-bisphosphate 3-kinase catalytic subunit delta isoform (Homo sapiens, UniProt O00329).
T2 sequence (O00329 whole entry): T1 sequence (whole entry)
Nature of the test: Inhibition of wild type PI3K-delta (unknown origin) assessed as decrease in ATP consumption using phosphotidylinositol bisphosphate and ATP measured after 60 mins by Kinase-Glo reagent based luminescence assay.

Chain of DNA-dependent protein kinase catalytic subunit (P78527 whole entry, canonical isoform): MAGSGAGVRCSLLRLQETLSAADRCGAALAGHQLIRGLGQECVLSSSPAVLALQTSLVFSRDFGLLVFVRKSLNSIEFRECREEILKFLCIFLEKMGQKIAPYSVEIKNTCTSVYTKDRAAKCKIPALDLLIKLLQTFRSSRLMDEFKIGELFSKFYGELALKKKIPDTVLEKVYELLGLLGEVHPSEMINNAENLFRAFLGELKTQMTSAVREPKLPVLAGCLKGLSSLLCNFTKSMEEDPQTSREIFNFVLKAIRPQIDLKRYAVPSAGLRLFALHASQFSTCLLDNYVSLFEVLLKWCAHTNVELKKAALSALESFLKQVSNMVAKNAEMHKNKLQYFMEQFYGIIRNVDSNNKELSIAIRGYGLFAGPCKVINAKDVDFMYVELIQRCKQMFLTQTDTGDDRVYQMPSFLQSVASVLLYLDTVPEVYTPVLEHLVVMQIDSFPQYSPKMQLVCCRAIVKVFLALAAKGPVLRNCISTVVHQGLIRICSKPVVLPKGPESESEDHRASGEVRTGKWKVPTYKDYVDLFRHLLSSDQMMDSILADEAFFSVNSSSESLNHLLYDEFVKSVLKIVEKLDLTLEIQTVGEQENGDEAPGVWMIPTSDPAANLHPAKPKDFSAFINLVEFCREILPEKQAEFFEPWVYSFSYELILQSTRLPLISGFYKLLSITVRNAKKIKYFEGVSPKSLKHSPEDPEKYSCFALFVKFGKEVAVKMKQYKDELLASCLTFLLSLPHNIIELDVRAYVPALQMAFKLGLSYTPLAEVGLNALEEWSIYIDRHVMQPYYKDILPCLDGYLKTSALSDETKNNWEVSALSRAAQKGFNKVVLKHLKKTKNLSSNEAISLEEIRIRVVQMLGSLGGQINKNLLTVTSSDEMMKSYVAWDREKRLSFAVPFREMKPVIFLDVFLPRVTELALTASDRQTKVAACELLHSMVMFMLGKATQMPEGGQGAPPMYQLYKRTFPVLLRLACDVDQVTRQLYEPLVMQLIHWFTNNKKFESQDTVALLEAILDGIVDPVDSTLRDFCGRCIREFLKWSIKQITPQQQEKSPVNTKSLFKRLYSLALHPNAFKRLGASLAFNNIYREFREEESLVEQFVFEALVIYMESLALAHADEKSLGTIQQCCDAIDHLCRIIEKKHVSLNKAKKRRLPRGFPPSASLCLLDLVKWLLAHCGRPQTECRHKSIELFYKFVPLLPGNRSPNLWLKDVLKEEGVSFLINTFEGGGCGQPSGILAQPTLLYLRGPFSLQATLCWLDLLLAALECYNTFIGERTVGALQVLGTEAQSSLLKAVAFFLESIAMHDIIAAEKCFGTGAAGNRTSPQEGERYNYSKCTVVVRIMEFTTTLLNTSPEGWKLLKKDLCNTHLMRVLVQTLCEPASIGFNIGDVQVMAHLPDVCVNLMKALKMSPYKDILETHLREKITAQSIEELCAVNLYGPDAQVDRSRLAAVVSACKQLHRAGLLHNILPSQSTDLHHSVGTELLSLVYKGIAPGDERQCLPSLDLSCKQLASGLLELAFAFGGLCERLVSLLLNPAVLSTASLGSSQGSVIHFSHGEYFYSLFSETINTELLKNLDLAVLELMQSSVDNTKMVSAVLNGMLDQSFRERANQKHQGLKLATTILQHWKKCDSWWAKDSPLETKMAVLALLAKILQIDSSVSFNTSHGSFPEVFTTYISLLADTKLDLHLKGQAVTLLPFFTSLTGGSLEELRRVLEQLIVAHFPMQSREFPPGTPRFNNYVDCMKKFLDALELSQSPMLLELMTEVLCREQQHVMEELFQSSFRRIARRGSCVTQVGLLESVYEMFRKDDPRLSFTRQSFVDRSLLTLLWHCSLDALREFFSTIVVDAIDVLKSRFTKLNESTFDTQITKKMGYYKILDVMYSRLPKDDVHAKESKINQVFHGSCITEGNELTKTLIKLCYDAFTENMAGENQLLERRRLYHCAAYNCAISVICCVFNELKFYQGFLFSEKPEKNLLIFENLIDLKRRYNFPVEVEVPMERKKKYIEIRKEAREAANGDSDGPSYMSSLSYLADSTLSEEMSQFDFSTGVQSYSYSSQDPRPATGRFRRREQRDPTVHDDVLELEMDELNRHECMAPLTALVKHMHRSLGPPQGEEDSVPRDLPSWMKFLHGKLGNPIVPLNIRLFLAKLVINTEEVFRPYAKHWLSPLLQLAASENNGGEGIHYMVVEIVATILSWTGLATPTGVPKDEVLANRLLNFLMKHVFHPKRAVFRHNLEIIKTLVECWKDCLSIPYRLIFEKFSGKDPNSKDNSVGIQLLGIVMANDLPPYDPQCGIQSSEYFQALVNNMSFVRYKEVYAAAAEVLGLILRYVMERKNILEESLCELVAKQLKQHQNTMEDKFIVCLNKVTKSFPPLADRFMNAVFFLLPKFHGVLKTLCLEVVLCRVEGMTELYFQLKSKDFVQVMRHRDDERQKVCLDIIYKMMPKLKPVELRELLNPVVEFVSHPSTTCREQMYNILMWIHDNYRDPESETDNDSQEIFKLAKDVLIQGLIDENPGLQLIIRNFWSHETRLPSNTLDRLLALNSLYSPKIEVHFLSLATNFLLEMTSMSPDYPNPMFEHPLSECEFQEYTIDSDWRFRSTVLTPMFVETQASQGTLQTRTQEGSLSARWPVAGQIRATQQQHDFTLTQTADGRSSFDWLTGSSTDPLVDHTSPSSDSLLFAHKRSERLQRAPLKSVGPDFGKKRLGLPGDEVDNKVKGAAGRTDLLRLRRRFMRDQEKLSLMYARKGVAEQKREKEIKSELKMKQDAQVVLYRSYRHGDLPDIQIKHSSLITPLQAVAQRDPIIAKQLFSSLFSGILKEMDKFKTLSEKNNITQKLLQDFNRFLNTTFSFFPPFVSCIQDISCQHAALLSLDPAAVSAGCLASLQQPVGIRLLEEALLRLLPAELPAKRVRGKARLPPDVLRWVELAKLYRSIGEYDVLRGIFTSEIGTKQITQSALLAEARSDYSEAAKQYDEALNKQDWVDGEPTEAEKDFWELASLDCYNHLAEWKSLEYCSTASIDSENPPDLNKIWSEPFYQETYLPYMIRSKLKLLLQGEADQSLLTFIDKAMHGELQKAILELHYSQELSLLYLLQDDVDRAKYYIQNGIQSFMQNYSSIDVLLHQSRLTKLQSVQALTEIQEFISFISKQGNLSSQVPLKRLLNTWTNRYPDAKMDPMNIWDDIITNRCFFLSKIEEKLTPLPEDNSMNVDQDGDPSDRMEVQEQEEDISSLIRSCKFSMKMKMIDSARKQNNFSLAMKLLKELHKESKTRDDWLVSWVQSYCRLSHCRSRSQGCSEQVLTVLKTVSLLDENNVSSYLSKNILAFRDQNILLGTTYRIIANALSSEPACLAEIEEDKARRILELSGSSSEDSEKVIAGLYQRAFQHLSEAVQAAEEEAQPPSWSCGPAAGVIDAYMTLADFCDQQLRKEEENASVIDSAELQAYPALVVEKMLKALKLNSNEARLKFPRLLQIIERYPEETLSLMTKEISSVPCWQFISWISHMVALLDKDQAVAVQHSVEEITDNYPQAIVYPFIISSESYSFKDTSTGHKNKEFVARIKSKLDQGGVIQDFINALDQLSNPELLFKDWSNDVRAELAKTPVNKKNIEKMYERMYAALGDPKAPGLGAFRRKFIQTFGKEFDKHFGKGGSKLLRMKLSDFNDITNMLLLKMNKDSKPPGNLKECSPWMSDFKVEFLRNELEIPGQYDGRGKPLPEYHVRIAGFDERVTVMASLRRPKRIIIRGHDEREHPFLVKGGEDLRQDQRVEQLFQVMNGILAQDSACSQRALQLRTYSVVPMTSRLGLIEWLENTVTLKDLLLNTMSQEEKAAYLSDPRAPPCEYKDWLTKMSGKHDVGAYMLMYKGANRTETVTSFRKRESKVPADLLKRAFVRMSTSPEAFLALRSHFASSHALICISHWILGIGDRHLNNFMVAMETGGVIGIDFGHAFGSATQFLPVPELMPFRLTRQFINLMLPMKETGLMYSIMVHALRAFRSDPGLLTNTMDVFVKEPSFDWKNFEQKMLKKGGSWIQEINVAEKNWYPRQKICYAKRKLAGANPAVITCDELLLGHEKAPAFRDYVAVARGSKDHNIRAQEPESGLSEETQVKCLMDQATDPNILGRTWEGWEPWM
Chain of Phosphatidylinositol 4,5-bisphosphate 3-kinase catalytic subunit alpha isoform (Homo sapiens) (P42336 whole entry, canonical isoform): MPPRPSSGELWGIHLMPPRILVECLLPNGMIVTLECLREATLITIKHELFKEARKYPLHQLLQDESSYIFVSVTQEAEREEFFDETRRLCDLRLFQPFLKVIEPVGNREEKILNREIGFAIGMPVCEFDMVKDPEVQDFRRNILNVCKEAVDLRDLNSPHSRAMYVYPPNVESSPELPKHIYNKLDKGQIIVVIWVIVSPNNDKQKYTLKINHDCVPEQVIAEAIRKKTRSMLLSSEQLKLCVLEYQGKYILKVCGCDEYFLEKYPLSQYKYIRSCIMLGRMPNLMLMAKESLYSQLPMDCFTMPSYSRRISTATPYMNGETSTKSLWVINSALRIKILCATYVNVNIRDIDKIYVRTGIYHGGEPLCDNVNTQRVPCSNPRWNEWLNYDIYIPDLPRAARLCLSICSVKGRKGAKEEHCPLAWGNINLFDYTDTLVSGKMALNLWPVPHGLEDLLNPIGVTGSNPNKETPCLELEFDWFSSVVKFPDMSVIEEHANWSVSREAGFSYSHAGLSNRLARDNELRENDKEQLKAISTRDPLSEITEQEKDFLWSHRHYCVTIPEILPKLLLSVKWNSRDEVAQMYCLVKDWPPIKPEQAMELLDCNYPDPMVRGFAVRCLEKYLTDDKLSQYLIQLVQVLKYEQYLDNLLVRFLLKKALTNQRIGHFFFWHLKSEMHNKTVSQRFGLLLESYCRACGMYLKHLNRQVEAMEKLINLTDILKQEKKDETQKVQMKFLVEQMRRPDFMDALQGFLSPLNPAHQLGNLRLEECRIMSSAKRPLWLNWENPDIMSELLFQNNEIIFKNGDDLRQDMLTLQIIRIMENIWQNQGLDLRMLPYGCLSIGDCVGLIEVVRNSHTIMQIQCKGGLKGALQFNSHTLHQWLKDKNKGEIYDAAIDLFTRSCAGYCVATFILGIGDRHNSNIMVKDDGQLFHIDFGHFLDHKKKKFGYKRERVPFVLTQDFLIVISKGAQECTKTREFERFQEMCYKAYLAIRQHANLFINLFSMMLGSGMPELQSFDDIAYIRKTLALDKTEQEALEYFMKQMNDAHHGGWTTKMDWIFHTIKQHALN

Consider `O=c1nc(N2CCOCC2)oc2c(-c3cc4ccccc4s3)c(OCc3ccccc3)ccc12`, for which the inhibition was 1.1% in test [1]; -7.1% in test [2]; 58.1% in test [3]; 0.4% in test [4]; -7.3% in test [5].
For the compound `O=c1nc(N2CCOCC2)oc2c(-c3cccc4ccccc34)c(OCc3ccccc3)ccc12`, the inhibition was determined as 9.5% in test [1], 4.07% in test [6], 51.3% in test [3] and 4.67% in test [4].
`O=c1nc(N2CCOCC2)oc2c(-c3ccsc3)c(OCc3ccccc3)ccc12`: the inhibition was determined as 39.5% in test [1]; 46.6% in test [6]; 38.8% in test [3]; 20.6% in test [4]; 4.8% in test [5].
On to `Nc1cccc(-c2c(OCc3ccccc3)ccc3c(=O)nc(N4CCOCC4)oc23)c1`, for which the inhibition came to 63.4% in test [1]; 19.8% in test [2]; 9.1% in test [6]; 5.1% in test [3]; 63.1% in test [4]; 31.6% in test [5].
Consider `CN1CCN(CCOc2ccc3c(=O)nc(N4CCOCC4)oc3c2-c2ccc(Cl)cc2)CC1`, for which the inhibition in test [1] turned out to be 49.4%; in test [2], 1.4%; in test [6], 11.6%; in test [3] it was 21.8%; in test [4], 20.3%; in test [5], 12.7%.
As for `O=c1nc(N2CCOCC2)oc2c(-c3ccccc3)c(OCc3ccccc3)ccc12`, the inhibition was determined as 58.7% in test [1]; 5.4% in test [2]; 13.6% in test [6]; 24% in test [3]; 29.8% in test [4]; 21.3% in test [5].
For `O=c1nc(N2CCOCC2)oc2c(-c3cc4ccccc4s3)c(OCc3ccncc3)ccc12`, the inhibition in test [1] was found to be 27.2%; in test [2], 0.2%; in test [6] it was 8.7%; in test [3], 51.6%.
Turning to `O=c1nc(N2CCOCC2)oc2c(-c3ccc(Cl)cc3)c(OCCBr)ccc12`, the inhibition in test [1] is 53.6%; in test [6], 31%; in test [3], 11.3%; in test [4], 7.6%; in test [5], -6.1%.
With `O=c1nc(N2CCOCC2)oc2c(-c3cccs3)c(OCc3ccncc3)ccc12`, the inhibition is 24% in test [1]; -1.5% in test [2]; 39.2% in test [6]; 55.3% in test [3]; 5.4% in test [4]; -2.9% in test [5].
As for `O=c1nc(N2CCOCC2)oc2c(-c3ccsc3)c(OCc3ccncc3)ccc12`, the inhibition worked out at 72.2% in test [1]; 7.7% in test [2]; 32.8% in test [6]; 55.3% in test [3]; 53.6% in test [4]; 21.4% in test [5].
Turning to `O=c1nc(N2CCOCC2)oc2c(-c3ccccc3)c(OCCBr)ccc12`, the inhibition is 75.9% in test [1]; -6.4% in test [2]; 31.1% in test [6]; 24% in test [3]; 33.8% in test [4]; 40.7% in test [5].
With `O=c1nc(N2CCOCC2)oc2c(-c3ccc(Cl)cc3)c(OCc3ccccc3)ccc12`, the inhibition in test [1] was determined as 27.4%; in test [2], 9.8%; in test [6], 25.7%; in test [3], 31.4%; in test [4], 11%; in test [5] it was 0.2%.
Regarding `O=c1nc(N2CCOCC2)oc2c(-c3cccnc3)c(OCc3ccccc3)ccc12`, the inhibition is 34.5% in test [1]; -2.3% in test [2]; 17.2% in test [6]; 46.9% in test [3]; 21% in test [4]; -1.7% in test [5].
For `O=c1nc(N2CCOCC2)oc2c(-c3cccc4c3sc3ccccc34)c(OCc3ccccc3)ccc12`, the inhibition in test [1] turned out to be 6.3%; in test [6] it was 64.4%; in test [3], 31.2%; in test [4], 15.1%.
As to `O=c1nc(N2CCOCC2)oc2c(-c3ccsc3)c(OCc3cccnc3)ccc12`, the inhibition in test [1] is 16.6%; in test [2] it was 3.8%; in test [6], 44%; in test [3], 61.9%; in test [4] it was 0.3%; in test [5] it was -3.3%.
As to `O=c1nc(N2CCOCC2)oc2c(-c3ccc(CO)cc3)c(OCc3ccccc3)ccc12`, the inhibition in test [1] worked out at 84.7%; in test [6], 36%; in test [3], 18.9%; in test [4], 54.2%; in test [5] it was 39.1%. Moreover, the IC50 in test [7] is 3070 nM.
In the case of `O=c1nc(N2CCOCC2)oc2c(-c3cccc4c3Sc3ccccc3S4)c(OCc3ccccc3)ccc12`, the inhibition in test [1] is -1%; in test [6], -1.7%; in test [3] it was 27.3%; in test [4] it was 0.6%.
`O=c1nc(N2CCOCC2)oc2c(-c3cccs3)c(OCc3ccccc3)ccc12`: the inhibition was 9.2% in test [1]; -3.5% in test [2]; 46.1% in test [6]; 59.9% in test [3]; -9.9% in test [5].
`Nc1cccc(-c2c(OCc3ccccn3)ccc3c(=O)nc(N4CCOCC4)oc23)c1`: the inhibition in test [1] turned out to be 47.6%; in test [2], 6.4%; in test [6], 7.3%; in test [3], 20%; in test [4], 65.5%; in test [5] it was 16.2%.
Regarding `COc1ccc(-c2c(OCc3ccccc3)ccc3c(=O)nc(N4CCOCC4)oc23)cc1`, the inhibition in test [1] was 65.7%; in test [2] it was -0.5%; in test [6], 40%; in test [3], 2.8%; in test [4], 19.8%; in test [5], 0.6%.
`COc1ccc(-c2c(OCc3ccncc3)ccc3c(=O)nc(N4CCOCC4)oc23)cc1`: the inhibition worked out at 96.3% in test [1]; 33.6% in test [6]; 33.5% in test [3]; 53.8% in test [4]; 36.2% in test [5]. Moreover, the 50% inhibitory concentration (IC50) in test [7] came out at 2900 nM.
As to `O=c1nc(N2CCOCC2)oc2c(-c3cccs3)c(OCc3cccnc3)ccc12`, the inhibition in test [1] amounted to 20.7%; in test [2] it was 1.7%; in test [6], 38.1%; in test [3], 61.8%; in test [4], 5.3%; in test [5], 3.3%.
For `Nc1cccc(-c2c(OCc3cccnc3)ccc3c(=O)nc(N4CCOCC4)oc23)c1`, the inhibition was 41.9% in test [1]; -6.9% in test [2]; 9.8% in test [6]; 28.2% in test [4]; 18.4% in test [5].
With `O=c1nc(N2CCOCC2)oc2c(-c3cccc4c3oc3ccccc34)c(OCc3ccccc3)ccc12`, the inhibition was -2.9% in test [1], -4.1% in test [2], 41.5% in test [6] and 62.9% in test [3].
As to `Nc1cccc(-c2c(OCc3ccncc3)ccc3c(=O)nc(N4CCOCC4)oc23)c1`, the inhibition is 9.7% in test [1]; -5.5% in test [2]; 10.1% in test [6]; 43.6% in test [3]; -5.5% in test [4].

Source of the values: ChEMBL document CHEMBL4043200, “Synthesis and biological evaluation of 8-aryl-2-morpholino-7-O-substituted benzo[e][1,3]oxazin-4-ones against DNA-PK, PI3K, PDE3A enzymes and platelet aggregation” (Bioorg Med Chem, 2017).
